Test systems include CAKI-1 renal; OVCAR-4 ovarian; HS 578T breast; SW-620 colon; OVCAR-8 ovarian; SN12C renal; PC-3 prostate; CCRF-CEM leukemia; SK-MEL-5 melanoma; KM12 colon.
Holding throughout (assay): NCI tumour cell line growth inhibition, 48 h

Several values for one entry are separate records, joined by “and”; a condition that tells them apart may be missing. Equal entries are not always repeated.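 Following 48 hours of exposure in 96-well plates, responses at five concentrations were used to interpolate endpoints linearly. GI50 is the concentration that inhibits growth by half. At the TGI there is no net growth.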

Consider `CN1CCN(c2ccc(NC(=O)c3cncnc3Nc3ccc(OCc4cccc(F)c4)c(Cl)c3)cc2)CC1`, for which the GI50 with CAKI-1 renal was 1.48 µM; in the assay on OVCAR-4 ovarian it was 4 µM; in the assay on HS 578T breast, 1.99 µM; in the assay with SW-620 colon it was 0.932 µM; in the assay with OVCAR-8 ovarian it was 7.84 µM; in the assay with SN12C renal it was 1.13 µM. The GI50 was 1.78 µM in the assay with PC-3 prostate, 1.27 µM in the assay with CCRF-CEM leukemia, 1.55 µM in the assay on SK-MEL-5 melanoma and 2.21 µM in the assay on KM12 colon. Moreover, the TGI was 6.01 µM in the assay with CAKI-1 renal; over 50 µM in the assay on OVCAR-4 ovarian; 11.6 µM in the assay on HS 578T breast; 1.88 µM in the assay on SW-620 colon; over 50 µM with OVCAR-8 ovarian; 2.75 µM with SN12C renal. For the same compound, the TGI with PC-3 prostate was over 50 µM; with CCRF-CEM leukemia, 4.23 µM; with SK-MEL-5 melanoma it was 5.2 µM; with KM12 colon, over 50 µM.
Take `C[C@H](CS)C(=O)N1c2ccccc2C[C@H]1C(=O)O`: the TGI in the assay on CAKI-1 renal, in the assay on OVCAR-4 ovarian, in the assay on HS 578T breast, with SW-620 colon, with OVCAR-8 ovarian and in the assay with SN12C renal was over 100 µM throughout. Further, the TGI in the assay with PC-3 prostate, with CCRF-CEM leukemia, in the assay on SK-MEL-5 melanoma and with KM12 colon was over 100 µM in each case.
In the case of `COc1ccc(Cn2cc3c(c2)-c2oncc2CC3)cc1OC`, the GI50 in the assay on CAKI-1 renal is 0.193 µM; in the assay on OVCAR-4 ovarian, 0.643 µM; in the assay with HS 578T breast, 0.132 µM; in the assay with SW-620 colon, 0.153 µM; in the assay with OVCAR-8 ovarian it was 0.322 µM; in the assay on SN12C renal it was 0.331 µM. The GI50 in the assay with PC-3 prostate is 0.395 µM; in the assay with CCRF-CEM leukemia it was 0.132 µM; in the assay with SK-MEL-5 melanoma it was 0.229 µM; in the assay with KM12 colon, 0.18 µM. In addition, the TGI was over 31.3 µM with CAKI-1 renal; over 50 µM with OVCAR-4 ovarian; 0.447 µM in the assay with HS 578T breast; over 50 µM in the assay on SW-620 colon; over 31.7 µM with OVCAR-8 ovarian; over 50 µM with SN12C renal. For the same compound, the results for the TGI in the assay with PC-3 prostate, in the assay on SK-MEL-5 melanoma and in the assay on KM12 colon were over 50 µM, 1.7 µM and 1.27 µM, respectively.
On to `O=C(Nc1ccccc1C(F)(F)F)c1ccc(NC2=C(Cl)C(=O)N(Cc3ccccc3)C2=O)cc1`, for which the GI50 is 1.97 µM in the assay with CAKI-1 renal; 33.5 µM with OVCAR-4 ovarian; 43.6 µM in the assay on HS 578T breast; over 100 µM in the assay on SW-620 colon; 28.7 µM in the assay on OVCAR-8 ovarian; 18.6 µM in the assay on SN12C renal. Moreover, the GI50 is 12.2 µM with PC-3 prostate, 2.95 µM in the assay with CCRF-CEM leukemia, 48.7 µM in the assay on SK-MEL-5 melanoma and over 100 µM in the assay on KM12 colon. In addition, the TGI in the assay with CAKI-1 renal was 4.15 µM; in the assay on OVCAR-4 ovarian it was over 100 µM; in the assay with HS 578T breast, over 100 µM; with SW-620 colon, over 100 µM; in the assay with OVCAR-8 ovarian, over 100 µM; in the assay with SN12C renal, over 100 µM. Also, the TGI with PC-3 prostate is over 100 µM; with CCRF-CEM leukemia, 12.7 µM; in the assay on SK-MEL-5 melanoma, over 100 µM; with KM12 colon, over 100 µM.
Turning to `COc1ccc(-c2[nH]nc(N)c2-c2cc(OC)c3c(c2)OCO3)cc1`, the GI50 was 3.98 µM in the assay with CAKI-1 renal; 12.9 µM in the assay on OVCAR-4 ovarian; 2.01 µM with HS 578T breast; 3 µM in the assay on SW-620 colon; 4.44 µM in the assay with OVCAR-8 ovarian; 5.01 µM in the assay on SN12C renal. Also, the GI50 is 14.3 µM in the assay with PC-3 prostate, 3.47 µM in the assay with CCRF-CEM leukemia, 2.85 µM in the assay with SK-MEL-5 melanoma and 2.35 µM in the assay on KM12 colon. The TGI was over 100 µM in the assay on CAKI-1 renal; over 100 µM in the assay with OVCAR-4 ovarian; 5.21 µM with HS 578T breast; over 100 µM with SW-620 colon; over 100 µM in the assay on OVCAR-8 ovarian; over 100 µM in the assay with SN12C renal. The TGI in the assay on PC-3 prostate is over 100 µM; in the assay on CCRF-CEM leukemia, 38.8 µM; in the assay on SK-MEL-5 melanoma it was 8.97 µM; in the assay with KM12 colon, 31.6 µM.
With `COc1cccc(/C=C/c2ccnc3ccccc23)c1OC`, the TGI in the assay on CAKI-1 renal, in the assay on OVCAR-4 ovarian, with HS 578T breast, in the assay on SW-620 colon, in the assay with OVCAR-8 ovarian and in the assay on SN12C renal was over 10 µM each time. Further, the TGI in the assay on PC-3 prostate, in the assay with CCRF-CEM leukemia, with SK-MEL-5 melanoma and in the assay on KM12 colon was over 10 µM throughout.
With `O=c1c2ccccc2nc(-c2ccccc2Cl)n1-c1nnc(C(F)(F)F)s1`, the GI50 is 2.82 µM in the assay with CAKI-1 renal; 3.15 µM with OVCAR-4 ovarian; 2.38 µM in the assay on HS 578T breast; 3.4 µM with SW-620 colon; 3.37 µM in the assay with OVCAR-8 ovarian; 3.01 µM with SN12C renal. Further, the GI50 was 2.76 µM with PC-3 prostate, 3.13 µM with CCRF-CEM leukemia, 1.99 µM in the assay with SK-MEL-5 melanoma and 3.68 µM in the assay with KM12 colon. Besides, the TGI in the assay with CAKI-1 renal is 10.1 µM; in the assay with OVCAR-4 ovarian, over 100 µM; in the assay on HS 578T breast it was 9.3 µM; in the assay with SW-620 colon it was 15.9 µM; with OVCAR-8 ovarian, over 100 µM; with SN12C renal, over 100 µM. The TGI was found to be 14.1 µM in the assay on PC-3 prostate, 40.7 µM in the assay on CCRF-CEM leukemia, 4.91 µM in the assay on SK-MEL-5 melanoma and 14.1 µM in the assay on KM12 colon.
As for `Nc1cc(C(F)(F)F)c(-c2cc(N3CCOCC3)nc(N3CCOCC3)n2)cn1`, the GI50 was 0.441 µM and 0.806 µM in the assay on CAKI-1 renal; 1.4 µM and 1.27 µM in the assay on OVCAR-4 ovarian; 0.313 µM and 0.522 µM with HS 578T breast; 1 µM and 0.717 µM in the assay with SW-620 colon; 1.67 µM and 1.55 µM in the assay with OVCAR-8 ovarian; 1.27 µM and 1.61 µM in the assay on SN12C renal. The GI50 in the assay on PC-3 prostate was 0.44 µM and 0.49 µM; in the assay on CCRF-CEM leukemia it was 1.56 µM and 1.49 µM; in the assay on SK-MEL-5 melanoma, 0.797 µM and 0.587 µM; in the assay with KM12 colon, 1.39 µM and 1.22 µM. The TGI in the assay on CAKI-1 renal was 4.05 µM and > 24.3 µM; in the assay with OVCAR-4 ovarian, > 9.01 µM and 29 µM; in the assay on HS 578T breast it was 1.55 µM and 5.2 µM; in the assay with SW-620 colon, over 100 µM; with OVCAR-8 ovarian it was > 9.24 µM and 11.8 µM; in the assay on SN12C renal, over 100 µM. Moreover, the TGI was > 9.49 µM and 6.09 µM in the assay with PC-3 prostate; over 100 µM in the assay on CCRF-CEM leukemia; 3.05 µM and 2.56 µM with SK-MEL-5 melanoma; > 10 µM and 8.55 µM in the assay on KM12 colon.

The values are drawn from PubChem BioAssay (NCI).
